In test [1] the target is T1, human glucocorticoid receptor-α [GRX] isoform (Homo sapiens, UniProt P04150).
T1 construct: host or cells: insect SF21 cells (baculovirus)
T1 sequence (P04150 1-777): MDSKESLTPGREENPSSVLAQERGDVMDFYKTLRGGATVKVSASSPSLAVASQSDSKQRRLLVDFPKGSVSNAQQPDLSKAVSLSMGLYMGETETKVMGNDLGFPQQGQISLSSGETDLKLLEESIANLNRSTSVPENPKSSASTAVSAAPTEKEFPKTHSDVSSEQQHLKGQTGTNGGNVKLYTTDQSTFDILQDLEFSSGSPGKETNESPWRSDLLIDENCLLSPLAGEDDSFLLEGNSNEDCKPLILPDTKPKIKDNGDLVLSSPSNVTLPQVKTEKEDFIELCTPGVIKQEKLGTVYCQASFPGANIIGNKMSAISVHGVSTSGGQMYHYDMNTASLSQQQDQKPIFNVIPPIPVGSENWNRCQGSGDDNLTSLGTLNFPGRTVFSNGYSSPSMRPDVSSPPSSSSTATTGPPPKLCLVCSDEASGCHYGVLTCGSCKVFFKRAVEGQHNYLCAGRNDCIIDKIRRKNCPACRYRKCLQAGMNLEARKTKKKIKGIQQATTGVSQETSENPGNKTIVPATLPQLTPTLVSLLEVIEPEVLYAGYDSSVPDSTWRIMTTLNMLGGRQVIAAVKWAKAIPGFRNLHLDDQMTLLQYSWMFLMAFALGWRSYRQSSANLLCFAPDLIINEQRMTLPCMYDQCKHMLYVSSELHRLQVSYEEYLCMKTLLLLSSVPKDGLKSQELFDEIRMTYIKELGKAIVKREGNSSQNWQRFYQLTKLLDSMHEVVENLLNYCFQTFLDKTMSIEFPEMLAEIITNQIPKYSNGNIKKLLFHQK
The experiment in a line: Radioligand binding with human glucocorticoid receptor cytosol ([3H]-dexamethasone competition).

The target of test [2] is T2, human progesterone receptor-A [PRA] isoform (Homo sapiens, UniProt P06401).
T2 construct: host or cells: insect SF21 cells (baculovirus)
T2 sequence (P06401 1-769 isoform P06401-2): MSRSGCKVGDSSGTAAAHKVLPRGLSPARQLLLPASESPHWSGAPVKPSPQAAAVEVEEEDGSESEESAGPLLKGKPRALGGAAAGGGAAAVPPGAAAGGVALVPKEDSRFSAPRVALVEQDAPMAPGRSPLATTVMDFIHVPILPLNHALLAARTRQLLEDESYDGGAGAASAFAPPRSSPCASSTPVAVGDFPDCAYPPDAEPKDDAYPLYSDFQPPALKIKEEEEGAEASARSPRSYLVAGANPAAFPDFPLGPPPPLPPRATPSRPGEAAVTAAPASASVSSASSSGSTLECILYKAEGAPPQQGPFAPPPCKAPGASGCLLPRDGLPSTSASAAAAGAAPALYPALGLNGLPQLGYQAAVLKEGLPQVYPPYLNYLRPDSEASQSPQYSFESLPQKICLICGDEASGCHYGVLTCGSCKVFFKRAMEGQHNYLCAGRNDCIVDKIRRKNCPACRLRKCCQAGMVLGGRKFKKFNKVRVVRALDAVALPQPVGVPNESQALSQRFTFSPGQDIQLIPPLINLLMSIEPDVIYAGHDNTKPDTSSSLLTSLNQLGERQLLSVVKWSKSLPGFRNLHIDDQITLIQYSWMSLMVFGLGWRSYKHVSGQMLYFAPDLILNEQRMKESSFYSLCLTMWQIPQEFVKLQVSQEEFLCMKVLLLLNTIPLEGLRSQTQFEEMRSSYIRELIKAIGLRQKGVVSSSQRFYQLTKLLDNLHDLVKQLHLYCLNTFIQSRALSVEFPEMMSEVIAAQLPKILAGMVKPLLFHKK
The experiment in a line: Radioligand binding with human progesterone receptor cytosol ([3H]-progesterone competition).
Protocol: Both receptor cDNAs were cloned into baculovirus expression vectors and expressed in insect SF21 cells.
Stock solutions (32 mM) of compounds were prepared in dimethylsulfoxide (DMSO), and 50× solutions of test compounds were prepared from the 32 mM solution with a 50:50 mixture of DMSO/ethanol. The 50× solution was then diluted with binding buffer that contained 10 mM Tri-HCl, 1.5 mM EDTA, 10% glycerol, 1 mM DTT, 20 mM sodium molybdate, pH 7.5 @4° C. 1% DMSO/ethanol was present in the binding assay.
For PR binding assays, [^3H]Prog (˜36,000 dpm (˜0.8 nM)), PRA cytosol (˜40 μg protein), test compounds and binding buffer were mixed in a total volume of 200 μL and incubated at 4° C at overnight in a plate shaker. Specific binding was defined as the difference between binding of [^3H]Prog in the absence and in the presence of 3 μM unlabelled Prog.
After an overnight incubation, 50 μL of hydroxyapatite (25% weight/volume) slurry were added to each well and plates were incubated for 10 min at 0° C. in a plate shaker. Plates were suctioned with a Millipore vacuum manifold and each well was rinsed with 300 μL of ice-cold binding buffer. A 250 μL aliquot of Packard Microscint-20 was added to each well and the wells were shaken at room temperature for 20 minutes. The amount of radioactivity was determined with a Packard TopCount plate reader.
The Ki of test compounds was determined using the Cheng-Prusoff equation Ki=IC50/(1+[L*]/[KL]) where L* is the concentration of radioligand and KL is the dissociation constant of the radioligand determined from saturation analysis.

The mark [3] stands for this setting: GRX cytosol expressed in insect SF21 cells, [3H]-Dex ~0.9 nM, 4° C. overnight, Ki by Cheng-Prusoff, KL ~[…], read-out: Ki (nM) GR.
The mark [4] stands for this setting: PRA cytosol expressed in insect SF21 cells, [3H]Prog ~0.8 nM, 4° C. overnight, Ki by Cheng-Prusoff, KL ~4.5 nM, read-out: Ki (nM) PR.

These results are taken from US6506766B1 (Abbott Laboratories, priority 1998, dated 2003).

Where two headings read alike, the source gives them in different places.

Broadly, the Ki is the dissociation constant of the complex between target and ligand, obtained from inhibition or displacement. For `C=CCNc1cccc2c1-c1ccc3c(c1C(c1cc(Cl)cc(Cl)c1)O2)C(C)=CC(C)(C)N3` (centres unmarked) [Example 74, 5-(3,5-Dichlorophenyl)-2,5-dihydro-2,2,4-trimethyl-N-(2-propenyl)-1H-[1]benzopyrano[3,4-f]quinolin-10-amine], the inhibition constant Ki in test [1] (setting [3]) was 11.9 nM; in test [2] (setting [4]), 4880 nM.

In the case of `C#CCOc1cccc2c1-c1ccc3c(c1C(c1ccccc1)O2)C(C)=CC(C)(C)N3` (centres unmarked) [Example 75, 2,5-Dihydro-2,2,4-trimethyl-5-phenyl-10-(2-propynyloxy)-1H-[1]benzopyrano[3,4-f]quinoline], the Ki came to 7.3 nM in test [1] (setting [3]) and 13800 nM in test [2] (setting [4]).

As for `C=CCOc1cccc2c1-c1ccc3c(c1C(c1ccccc1)O2)C(C)=CC(C)(C)N3` (centres unmarked) [Example 76, 2,5-Dihydro-2,2,4-trimethyl-5-phenyl-10-(2-prenyloxy)-1H-[1]benzopyrano[3,4-f]quinoline], the inhibition constant Ki is 152 nM in test [1] (setting [3]) and at least 10000 nM in test [2] (setting [4]).

In the case of `C=CCC1Oc2cccc(CO)c2-c2ccc3c(c21)C(C)=CC(C)(C)N3` (centres unmarked) [Example 77, 2,5-Dihydro-2,2,4-trimethyl-5-(2-propenyl)-1H-[1]benzopyrano[3,4-f]quinoline-10-methanol], the Ki in test [1] (setting [3]) was 1.6 nM; in test [2] (setting [4]) it was 173 nM.

In the case of `CCOc1cccc2c1-c1ccc3c(c1C(c1cc(Cl)cc(Cl)c1)O2)C(C)=CC(C)(C)N3` (centres unmarked) [Example 79, 5-(3,5-Dichlorophenyl)-10-ethoxy-2,5-dihydro-2,2,4-trimethyl-1H-[1]benzopyrano[3,4-f]quinoline], the inhibition constant Ki in test [1] (setting [3]) is 19.2 nM; in test [2] (setting [4]) it was at least 10000 nM.

With `CC1=CC(C)(C)Nc2ccc3c(c21)C(c1cc(Cl)cc(Cl)c1)Oc1cccc(O)c1-3` (centres unmarked) [Example 80, 5-(3,5-Dichlorophenyl)-2,5-dihydro-2,2,4-trimethyl-1H-[1]benzopyrano[3,4-f]quinolin-10-ol], the Ki in test [1] (setting [3]) was 168 nM; in test [2] (setting [4]) it was at least 10000 nM.

For the compound `COC(=O)Oc1cccc2c1-c1ccc3c(c1C(c1cc(Cl)cc(Cl)c1)O2)C(C)=CC(C)(C)N3` (centres unmarked) [Example 81], the inhibitory constant (Ki) was 155 nM in test [1] (setting [3]) and at least 10000 nM in test [2] (setting [4]).

With `C=CCC1Oc2cccc(O)c2-c2ccc3c(c21)C(C)=CC(C)(C)N3` (centres unmarked) [Example 82, 2,5-Dihydro-2,2,4-trimethyl-5-(2-propenyl)-1H-1benzopyrano[3,4-f]quinolin-10-ol], the inhibition constant Ki in test [1] (setting [3]) is 22.9 nM; in test [2] (setting [4]) it was 327 nM.

As for `C=CCC1Oc2cccc(OC(F)(F)Br)c2-c2ccc3c(c21)C(C)=CC(C)(C)N3` (centres unmarked) [Example 83, 10-(Bromodifluoromethoxy)-2,5-dihyro-2,2,4-trimethyl-5-(2-propenyl)-1H-[1]benzopyrano[3,4-f]quinoline], the figures for the Ki in test [1] (setting [3]) and in test [2] (setting [4]) were 54.8 nM and 2210 nM, respectively.

For the compound `COC(=O)Oc1cccc(C2Oc3cccc(OC)c3-c3ccc4c(c32)C(C)=CC(C)(C)N4)c1` (centres unmarked) [Example 84, [3-(2,5-Dihydro-10-methoxy-2,2,4-trimethyl-1H-[1]benzopyrano[3,4-f]quinolin-5-yl)phenyl]methylcarbonate], the Ki in test [1] (read-out: Ki (nM) GR) is 17.3 nM; in test [2] (read-out: Ki (nM) PR) it was at least 10000 nM.

As for `COc1cccc(C2Oc3cccc(OC)c3-c3ccc4c(c32)C(C)=CC(C)(C)N4)c1` (centres unmarked) [Example 85, 2,5-Dihydro-10-methoxy-5-(3-methoxyphenyl)-2,2,4-trimethyl-1H-[1]benzopyrano[3,4-f]quinoline], the Ki is 3.5 nM in test [1] (setting [3]) and at least 10000 nM in test [2] (setting [4]).

For the compound `C=CCOc1cccc(C2Oc3cccc(OC)c3-c3ccc4c(c32)C(C)=CC(C)(C)N4)c1` (centres unmarked) [Example 86, 2,5-Dihydro-10-methoxy-2,2,4-trimethyl-5-[3-(2-propenyloxy)phenyl]-1H-[1]benzopyrano[3,4-f]quionline], the Ki in test [1] (setting [3]) was 2.1 nM; in test [2] (setting [4]) it was at least 10000 nM.

On to `COc1cccc2c1-c1ccc3c(c1C(c1cccc(OCc4ccccc4)c1)O2)C(C)=CC(C)(C)N3` (centres unmarked) [Example 87, 2,5-Dihydro-10-methoxy-2,2,4-trimethyl-5-[3-(phenylmethoxy)phenyl]-1H[1]benzopyrano[3,4-f]quinoline], for which the Ki was 4.7 nM in test [1] (setting [3]) and at least 10000 nM in test [2] (setting [4]).

Take `COc1cccc2c1-c1ccc3c(c1C(c1cccc(OCC4CC4)c1)O2)C(C)=CC(C)(C)N3` (centres unmarked) [Example 88, 5-[3-(Cyclopropylmethoxy)phenyl]-2,5-dihydro-10-methoxy-2,2,4-trimethyl-1H-[1]benzopyrano[3,4-f]quinoline]: the Ki was found to be 6 nM in test [1] (setting [3]) and 15300 nM in test [2] (setting [4]).

Turning to `COc1cccc2c1-c1ccc3c(c1C(c1cccc(OCCN4CCCCC4)c1)O2)C(C)=CC(C)(C)N3` (centres unmarked) [Example 89, 2,5-Dihydro-10-methoxy-2,2,4-trimethyl-5-[3-[2-(1-piperidinyl)ethoxy]pheny]-1H-[1]benzopyrano[3,4-f]quinoline], the Ki in test [1] (setting [3]) was 275 nM; in test [2] (setting [4]) it was at least 10000 nM.

`CCCCCCOc1cccc(C2Oc3cccc(OC)c3-c3ccc4c(c32)C(C)=CC(C)(C)N4)c1` (centres unmarked) [Example 90, 5-(3-Hexyloxyphenyl)-2,5-dihydro-10-methoxy-2,2,4-trimethyl-1H-[1]benzopyrano[3,4-f]quinoline]: the inhibition constant Ki in test [1] (setting [3]) is 7.6 nM; in test [2] (setting [4]) it was at least 10000 nM.

With `COc1cccc2c1-c1ccc3c(c1C(c1cccc(Oc4ccc([N+](=O)[O-])cc4[N+](=O)[O-])c1)O2)C(C)=CC(C)(C)N3` (centres unmarked) [Example 91, 5-[3-(2,4-Dinitrophenoxy)phenyl]-2,5-dihydro-10-methoxy-2,2,4-trimethyl-1H-[1]benzopyrano[3,4-f]quinoline], the inhibition constant (Ki) is 17 nM in test [1] (setting [3]) and at least 10000 nM in test [2] (setting [4]).

With `COc1cccc2c1-c1ccc3c(c1C(c1cccc(OS(=O)(=O)c4ccc(C)cc4)c1)O2)C(C)=CC(C)(C)N3` (centres unmarked) [Example 93, 3-(2,5-Dihydro-10-methoxy-2,2,4-trimethyl-1H-[1]benzopyrano[3,4-f]quinolin-5-yl)phenol 4-Methylbenzenesulfonate (Ester)], the results for the Ki in test [1] (setting [3]) and in test [2] (setting [4]) were 148 nM and at least 10000 nM, respectively.

For the compound `COc1cccc2c1-c1ccc3c(c1C(c1ccc(OC(C)=O)cc1)O2)C(C)=CC(C)(C)N3` (centres unmarked) [Example 94, 4-(2,5-Dihydro-10-methoxy-2,2,4-trimethyl-1H-[1]benzopyrano[3,4-f]quinolin5-yl)phenolacetate (Ester)], the inhibition constant Ki was 43 nM in test [1] (setting [3]) and at least 10000 nM in test [2] (setting [4]).

In the case of `COc1cccc2c1-c1ccc3c(c1C(c1ccc(O)cc1)O2)C(C)=CC(C)(C)N3` (centres unmarked) [Example 95, 4-(2,5-Dihydro-10-methoxy-2,2,4-trimethyl-1H-[1]benzopyrano[3,4-f]quinolin-5-yl)phenol], the inhibition constant (Ki) in test [1] (setting [3]) is 31 nM; in test [2] (setting [4]), at least 10000 nM.

For the compound `COc1cccc2c1-c1ccc3c(c1C(c1ccc(OCSC)cc1)O2)C(C)=CC(C)(C)N3` (centres unmarked) [Example 96, 2,5-Dihydro-10-methoxy-2,2,4-trimethyl-5-[[4-(methylthio)methoxy]phenyl]-1H-[1]benzopyrano[3,4-f]quinoline], the Ki stood at 10 nM in test [1] (setting [3]) and 9160 nM in test [2] (setting [4]).

`COc1cccc2c1-c1ccc3c(c1C(c1ccc(OC(=O)N(C)C)cc1)O2)C(C)=CC(C)(C)N3` (centres unmarked) [Example 97, [4-(2,5-Dihydro-10-methoxy-2,2,4-trimethyl-1H-1benzopyrano[3,4-f]quinolin-5-yl)phenyl]dimethylcarbamate]: the Ki in test [1] (Ki (nM) GR) was 320 nM; in test [2] (Ki (nM) PR), at least 10000 nM.
